Measured values as given in patent publication US7045343B2, “Sterilization indicator test packs” (3M Innovative Properties Company, priority 1998, dated 2006).

Test system: Bacillus stearothermophilus spores
Experiment: Spore outgrowth (color change) of indicators after prevacuum steam sterilization
Format: cell-based
Conditions: 4-pulse prevacuum steam 121° C.
In short: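 Self-contained indicators held coated spore strips, a polypropylene microfiber barrier and a crushable inner container. That container held peptone, L-alanine, 4-methylumbelliferyl-alpha-D-glucoside and bromocresol purple at pH 7.6. Indicators sat in metal trays in a Getinge sterilizer running pulses of 0.075–0.085 bar vacuum and steam to 1.00 bar at 121° C. Incubation at 60° C followed, and yellow color at 168 hours scored spore outgrowth.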

[1] = Example 4, 50 mg/ml coating, 7–18 min

Substance | NO. GROWTH POSITIVE 168 HR [1] | NO. GROWTH POSITIVE 168 HR (Example 4, 100 mg/ml coating, 7–18 min) | NO. GROWTH POSITIVE 168 HR (Example 1, 10 mg/ml coating, 7–13 min) | NO. GROWTH POSITIVE 168 HR (Example 1, 20 mg/ml coating, 7–13 min) | NO. GROWTH POSITIVE 168 HR (Example 1, 40 mg/ml coating, 7–13 min) | NO. GROWTH POSITIVE 168 HR (Example 1, 80 mg/ml coating, 7–13 min) | NO. GROWTH POSITIVE 168 HR (Example 1, 100 mg/ml coating, 7–13 min) | GROWTH POSITIVE 168 HR (Example 3, 100 mg/ml coating, 7–15 min)
Decaglyceryl Decaoleate | 31 | 30 |  |  |  |  |  | 
Decaglyceryl Monostearate | 29 |  | 39 | 34 | 59 | 55 | 34 | 20
